Measured values published in ChEMBL document CHEMBL1121966, “(2R*,3S*)-1-[125I]Iodo-2,3-bis(4-hydroxyphenyl)pentane ([125I]iodonorhexestrol) and (2R*,3S*)-1-[77Br]Bromo-2,3-bis(4-hydroxyphenyl)pentane ([77Br]bromonorhexestrol), two gamma-emitting estrogens that show receptor-mediated uptake by target tissues in vivo” (1982).

Assay: Solvolytic stability of compound was measured relative to p-hydroxyphenethyl bromide
Assay type: functional, Rattus norvegicus

With `C[C@]12CC[C@@H]3c4ccc(O)cc4CC[C@H]3[C@@H]1C[C@@H](Br)[C@@H]2O` the 1/krel was 1276.
`C[C@]12CC[C@@H]3c4ccc(O)cc4CC[C@H]3[C@@H]1C[C@@H](CBr)C2O` (some centres not stated) showed a 1/krel of 451.
